Key:
Assay in all cases: Carna kinase panel screen
Assay type in all cases: biochemical
Settings in all cases: read-out: % Inhibition ± SD
ACK = target: T1, ACK (Homo sapiens, UniProt Q07912)
T1 construct: purchased Carna Biosciences
Summary of the method: (§1)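 Ten-point dose-response, ATP ≈ Km. % inhibition vs concentration → 4-parameter logistic fit → IC50.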

AKT3 = target: T2, AKT3 (Homo sapiens, UniProt Q9Y243)
T2 construct: purchased Carna Biosciences
Summary of the method: as §1

ALK = target: T3, ALK (Homo sapiens, UniProt Q9UM73)
T3 construct: purchased Carna Biosciences
T3 sequence (Q9UM73 19-1620): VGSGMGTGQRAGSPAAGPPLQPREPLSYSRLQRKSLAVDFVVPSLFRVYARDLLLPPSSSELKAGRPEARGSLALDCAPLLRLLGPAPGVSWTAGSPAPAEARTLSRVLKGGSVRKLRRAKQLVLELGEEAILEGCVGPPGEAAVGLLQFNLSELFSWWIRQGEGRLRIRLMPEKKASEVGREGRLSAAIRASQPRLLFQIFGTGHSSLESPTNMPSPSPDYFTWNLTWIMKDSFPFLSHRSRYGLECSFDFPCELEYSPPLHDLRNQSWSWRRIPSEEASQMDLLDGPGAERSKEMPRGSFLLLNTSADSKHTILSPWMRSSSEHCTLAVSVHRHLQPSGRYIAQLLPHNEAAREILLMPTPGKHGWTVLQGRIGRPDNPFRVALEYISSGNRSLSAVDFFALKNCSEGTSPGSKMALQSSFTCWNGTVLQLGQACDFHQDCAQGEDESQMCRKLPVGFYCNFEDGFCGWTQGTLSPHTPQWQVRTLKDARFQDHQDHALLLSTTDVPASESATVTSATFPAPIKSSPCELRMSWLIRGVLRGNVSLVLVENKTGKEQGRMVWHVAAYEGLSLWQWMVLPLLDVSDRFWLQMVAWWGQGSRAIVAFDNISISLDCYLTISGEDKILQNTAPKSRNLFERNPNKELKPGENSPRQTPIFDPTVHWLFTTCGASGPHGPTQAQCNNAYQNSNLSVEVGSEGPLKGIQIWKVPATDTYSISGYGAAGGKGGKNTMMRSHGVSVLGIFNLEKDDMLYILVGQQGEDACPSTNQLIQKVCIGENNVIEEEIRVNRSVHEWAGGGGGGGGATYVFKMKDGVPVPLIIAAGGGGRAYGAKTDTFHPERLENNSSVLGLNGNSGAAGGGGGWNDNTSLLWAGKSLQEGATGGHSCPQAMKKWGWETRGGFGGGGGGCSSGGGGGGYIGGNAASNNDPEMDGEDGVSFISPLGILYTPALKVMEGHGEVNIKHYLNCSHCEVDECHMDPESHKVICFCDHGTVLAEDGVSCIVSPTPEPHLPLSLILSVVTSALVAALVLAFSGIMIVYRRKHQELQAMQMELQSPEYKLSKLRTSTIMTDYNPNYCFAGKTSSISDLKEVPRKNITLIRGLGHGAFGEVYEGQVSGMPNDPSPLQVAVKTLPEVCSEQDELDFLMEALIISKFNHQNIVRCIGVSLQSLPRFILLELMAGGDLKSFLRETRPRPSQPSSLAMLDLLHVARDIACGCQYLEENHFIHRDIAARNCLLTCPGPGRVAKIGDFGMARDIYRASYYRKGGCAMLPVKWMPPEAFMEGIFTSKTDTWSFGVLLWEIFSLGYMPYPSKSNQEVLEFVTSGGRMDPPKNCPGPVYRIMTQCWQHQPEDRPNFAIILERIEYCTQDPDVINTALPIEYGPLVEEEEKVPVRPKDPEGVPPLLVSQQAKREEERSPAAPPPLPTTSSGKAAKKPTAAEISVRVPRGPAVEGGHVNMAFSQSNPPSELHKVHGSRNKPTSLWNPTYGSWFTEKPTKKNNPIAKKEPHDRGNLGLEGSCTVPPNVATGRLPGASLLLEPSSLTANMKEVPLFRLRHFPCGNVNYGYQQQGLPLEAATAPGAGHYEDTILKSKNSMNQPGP
Summary of the method: as §1

AMPKa1 = target: T4, AMPKa1 (Homo sapiens, UniProt Q13131)
T4 construct: purchased Carna Biosciences
Summary of the method: as §1

AurA = target: T5, AurA (Homo sapiens, UniProt O14965)
T5 construct: purchased Carna Biosciences
Summary of the method: as §1

CDC7 = target: T6, CDC7 (Homo sapiens, UniProt O00311)
T6 construct: purchased Carna Biosciences
Summary of the method: as §1

CDK7 = target: T7, CDK7 (Homo sapiens, UniProt P50613)
T7 construct: purchased Carna Biosciences
Summary of the method: as §1

CDK9 = target: T8, CDK9 (Homo sapiens, UniProt P50750)
T8 construct: purchased Carna Biosciences
Summary of the method: as §1

CHK1 = target: T9, CHK1 (Homo sapiens, UniProt O14757)
T9 construct: purchased Carna Biosciences
Summary of the method: as §1

EGFR[T790M] = target: T10, EGFR[T790M] (Homo sapiens, UniProt P00533, T790M)
T10 construct: purchased Carna Biosciences
Summary of the method: as §1

FAK = target: T11, FAK (Homo sapiens, UniProt Q05397)
T11 construct: purchased Carna Biosciences
Summary of the method: as §1

FES = target: T12, FES (Homo sapiens, UniProt P07332)
T12 construct: purchased Carna Biosciences
Summary of the method: as §1

FGFR3[K650E] = target: T13, FGFR3[K650E] (Homo sapiens, UniProt P22607, K650E)
T13 construct: purchased Carna Biosciences
Summary of the method: (§2)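 First, percentage inhibition is computed for each test solution in a 10-point series, ATP held near Km. Then the concentration-inhibition curve is fitted with a four-parameter logistic equation to obtain IC50.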

FRK = target: T14, FRK (Homo sapiens, UniProt P42685)
T14 construct: purchased Carna Biosciences
Summary of the method: as §1

GSK3a = target: T15, GSK3a (Homo sapiens, UniProt P49840)
T15 construct: purchased Carna Biosciences
Summary of the method: as §1

GSK3b = target: T16, GSK3b (Homo sapiens, UniProt P49841)
T16 construct: purchased Carna Biosciences
T16 sequence (P49841 whole entry): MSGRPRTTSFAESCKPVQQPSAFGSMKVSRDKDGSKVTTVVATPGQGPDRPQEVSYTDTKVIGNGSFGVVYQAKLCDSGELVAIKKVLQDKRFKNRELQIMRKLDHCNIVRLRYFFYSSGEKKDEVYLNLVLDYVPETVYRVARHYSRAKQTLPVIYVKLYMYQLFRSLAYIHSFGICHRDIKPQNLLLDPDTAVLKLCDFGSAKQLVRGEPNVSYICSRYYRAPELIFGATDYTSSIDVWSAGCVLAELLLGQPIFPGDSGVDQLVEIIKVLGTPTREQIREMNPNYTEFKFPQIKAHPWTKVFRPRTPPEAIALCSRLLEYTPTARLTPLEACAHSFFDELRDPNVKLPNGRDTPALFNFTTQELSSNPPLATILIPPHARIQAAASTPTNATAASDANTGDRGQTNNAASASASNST
Summary of the method: as §1

HER4 = target: T17, HER4 (Homo sapiens, UniProt Q15303)
T17 construct: purchased Carna Biosciences
Summary of the method: as §1

HGK = target: T18, HGK (Homo sapiens, UniProt O95819)
T18 construct: purchased Carna Biosciences
Summary of the method: as §1

IGF1R = target: T19, IGF1R (Homo sapiens, UniProt P08069)
T19 construct: purchased Carna Biosciences
Summary of the method: as §2

IKKb = target: T20, IKKb (Homo sapiens, UniProt O14920)
T20 construct: purchased Carna Biosciences
Summary of the method: as §1

IRAK4 = target: T21, IRAK4 (Homo sapiens, UniProt Q9NWZ3)
T21 construct: purchased Carna Biosciences
T21 sequence (Q9NWZ3 whole entry): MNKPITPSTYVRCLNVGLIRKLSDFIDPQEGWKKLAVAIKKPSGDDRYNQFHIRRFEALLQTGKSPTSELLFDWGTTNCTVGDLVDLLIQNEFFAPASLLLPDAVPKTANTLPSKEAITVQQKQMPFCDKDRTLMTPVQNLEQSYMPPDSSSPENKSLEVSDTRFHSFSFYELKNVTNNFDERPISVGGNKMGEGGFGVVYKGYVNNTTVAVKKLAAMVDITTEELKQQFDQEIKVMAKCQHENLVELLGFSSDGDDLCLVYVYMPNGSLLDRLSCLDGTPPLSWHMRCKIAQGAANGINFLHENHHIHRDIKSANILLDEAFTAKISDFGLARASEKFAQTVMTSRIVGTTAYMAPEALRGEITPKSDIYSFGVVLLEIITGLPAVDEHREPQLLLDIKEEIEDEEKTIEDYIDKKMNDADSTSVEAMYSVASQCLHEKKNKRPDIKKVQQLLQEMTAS
Summary of the method: as §1

JAK1 = target: T22, JAK1 (Homo sapiens, UniProt P23458)
T22 construct: purchased Carna Biosciences
T22 sequence (P23458 whole entry): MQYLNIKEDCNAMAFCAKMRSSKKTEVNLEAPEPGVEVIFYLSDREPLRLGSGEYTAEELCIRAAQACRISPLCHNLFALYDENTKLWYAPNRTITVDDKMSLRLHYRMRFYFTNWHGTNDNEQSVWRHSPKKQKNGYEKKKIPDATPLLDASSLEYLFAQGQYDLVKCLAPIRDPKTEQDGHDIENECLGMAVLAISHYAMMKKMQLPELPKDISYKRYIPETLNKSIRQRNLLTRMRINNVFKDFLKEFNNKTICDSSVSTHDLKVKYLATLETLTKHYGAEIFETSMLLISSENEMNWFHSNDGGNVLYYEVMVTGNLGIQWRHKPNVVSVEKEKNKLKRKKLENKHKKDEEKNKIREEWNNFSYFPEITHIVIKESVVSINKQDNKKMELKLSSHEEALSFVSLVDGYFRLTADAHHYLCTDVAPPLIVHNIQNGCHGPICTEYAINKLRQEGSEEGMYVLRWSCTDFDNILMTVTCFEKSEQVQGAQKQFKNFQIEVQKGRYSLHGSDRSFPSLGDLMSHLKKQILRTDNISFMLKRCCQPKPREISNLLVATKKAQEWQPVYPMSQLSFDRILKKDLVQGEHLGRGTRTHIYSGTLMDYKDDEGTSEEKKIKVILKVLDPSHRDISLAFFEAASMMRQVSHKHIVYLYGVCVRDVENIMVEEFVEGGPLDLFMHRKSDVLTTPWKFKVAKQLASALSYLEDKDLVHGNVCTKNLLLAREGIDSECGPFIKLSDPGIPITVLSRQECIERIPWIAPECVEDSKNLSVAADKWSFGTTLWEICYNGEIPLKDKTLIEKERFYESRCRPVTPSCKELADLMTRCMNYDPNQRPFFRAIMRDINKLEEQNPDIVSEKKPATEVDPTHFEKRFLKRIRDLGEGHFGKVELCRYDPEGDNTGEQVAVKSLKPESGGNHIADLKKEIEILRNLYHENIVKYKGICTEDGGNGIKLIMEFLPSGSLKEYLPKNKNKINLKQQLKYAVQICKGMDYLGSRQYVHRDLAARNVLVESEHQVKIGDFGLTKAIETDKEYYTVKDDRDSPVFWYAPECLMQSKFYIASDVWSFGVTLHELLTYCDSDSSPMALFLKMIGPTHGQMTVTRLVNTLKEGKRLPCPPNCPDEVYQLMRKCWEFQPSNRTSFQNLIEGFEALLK
Summary of the method: as §1

JNK1 = target: T23, JNK1 (Homo sapiens, UniProt P45983)
T23 construct: purchased Carna Biosciences
Summary of the method: as §1

JNK2 = target: T24, JNK2 (Homo sapiens, UniProt P45984)
T24 construct: purchased Carna Biosciences
Summary of the method: as §2

LIMK1 = target: T25, LIMK1 (Homo sapiens, UniProt P53667)
T25 construct: purchased Carna Biosciences
Summary of the method: as §2

MAP2K6 = target: T26, MAP2K6 (Homo sapiens, UniProt P52564)
T26 construct: purchased Carna Biosciences
T26 sequence (P52564 whole entry): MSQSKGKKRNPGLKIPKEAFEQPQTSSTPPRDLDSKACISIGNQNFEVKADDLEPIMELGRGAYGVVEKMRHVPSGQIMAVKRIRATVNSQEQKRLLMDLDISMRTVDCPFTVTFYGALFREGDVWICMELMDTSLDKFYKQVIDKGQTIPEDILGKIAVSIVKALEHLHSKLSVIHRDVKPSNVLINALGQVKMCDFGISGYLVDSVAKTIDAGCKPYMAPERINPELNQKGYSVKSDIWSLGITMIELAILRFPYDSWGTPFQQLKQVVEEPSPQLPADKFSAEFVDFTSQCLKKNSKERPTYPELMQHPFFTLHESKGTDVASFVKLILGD
Summary of the method: as §1

MAP3K1 = target: T27, MAP3K1 (Homo sapiens, UniProt Q13233)
T27 construct: purchased Carna Biosciences
Summary of the method: as §1

MAP4K2 = target: T28, MAP4K2 (Homo sapiens, UniProt Q12851)
T28 construct: purchased Carna Biosciences
Summary of the method: as §2

MARK4 = target: T29, MARK4 (Homo sapiens, UniProt Q96L34)
T29 construct: purchased Carna Biosciences
Summary of the method: as §1

MELK = target: T30, MELK (Homo sapiens, UniProt Q14680)
T30 construct: purchased Carna Biosciences
Summary of the method: as §1

MGC42105 = target: T31, MGC42105 (Homo sapiens, UniProt Q8IY84)
T31 construct: purchased Carna Biosciences
Summary of the method: as §2

PBK = target: T32, PBK (Homo sapiens, UniProt Q96KB5)
T32 construct: purchased Carna Biosciences
Summary of the method: as §1

PDGFRa[T674I] = target: T33, PDGFRa[T674I] (Homo sapiens, UniProt P16234, T674I)
T33 construct: purchased Carna Biosciences
Summary of the method: as §2

PIM1 = target: T34, PIM1 (Homo sapiens, UniProt P11309)
T34 construct: purchased Carna Biosciences
Summary of the method: as §1

PKD1 = target: T35, PKD1 (Homo sapiens, UniProt Q15139)
T35 construct: purchased Carna Biosciences
Summary of the method: as §2

PLK4 = target: T36, PLK4 (Homo sapiens, UniProt O00444)
T36 construct: purchased Carna Biosciences
Summary of the method: as §2

PRKX = target: T37, PRKX (Homo sapiens, UniProt P51817)
T37 construct: purchased Carna Biosciences
Summary of the method: as §1

PYK2 = target: T38, PYK2 (Homo sapiens, UniProt Q14289)
T38 construct: purchased Carna Biosciences
T38 sequence (Q14289 whole entry): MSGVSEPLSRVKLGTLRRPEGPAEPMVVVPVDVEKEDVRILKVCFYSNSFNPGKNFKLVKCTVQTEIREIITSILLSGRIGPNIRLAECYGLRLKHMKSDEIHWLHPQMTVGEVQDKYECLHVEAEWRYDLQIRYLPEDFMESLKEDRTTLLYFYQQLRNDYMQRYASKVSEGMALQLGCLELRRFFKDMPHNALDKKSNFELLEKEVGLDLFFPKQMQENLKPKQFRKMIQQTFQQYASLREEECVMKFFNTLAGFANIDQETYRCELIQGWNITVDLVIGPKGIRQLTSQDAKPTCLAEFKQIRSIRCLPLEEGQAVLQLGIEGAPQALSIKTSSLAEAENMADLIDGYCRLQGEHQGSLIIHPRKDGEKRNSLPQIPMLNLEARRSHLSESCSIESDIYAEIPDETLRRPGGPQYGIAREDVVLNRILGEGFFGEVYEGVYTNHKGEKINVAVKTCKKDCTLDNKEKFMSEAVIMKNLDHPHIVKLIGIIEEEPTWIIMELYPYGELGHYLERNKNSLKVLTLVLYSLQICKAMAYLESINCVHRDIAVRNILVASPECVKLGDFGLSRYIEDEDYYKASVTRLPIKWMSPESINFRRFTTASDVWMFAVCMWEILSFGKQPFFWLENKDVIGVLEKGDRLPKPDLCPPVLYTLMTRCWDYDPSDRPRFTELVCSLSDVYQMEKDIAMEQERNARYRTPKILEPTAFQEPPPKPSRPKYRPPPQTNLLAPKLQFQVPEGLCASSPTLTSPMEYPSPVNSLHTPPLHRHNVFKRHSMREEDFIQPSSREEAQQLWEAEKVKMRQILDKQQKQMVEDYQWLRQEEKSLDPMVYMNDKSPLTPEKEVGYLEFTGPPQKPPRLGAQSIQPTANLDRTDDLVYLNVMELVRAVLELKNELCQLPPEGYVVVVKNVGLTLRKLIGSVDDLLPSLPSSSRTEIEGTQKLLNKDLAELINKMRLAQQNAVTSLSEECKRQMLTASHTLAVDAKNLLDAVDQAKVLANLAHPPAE
Summary of the method: as §1

RET = target: T39, RET (Homo sapiens, UniProt P07949)
T39 construct: purchased Carna Biosciences
Summary of the method: as §2

TBK1 = target: T40, TBK1 (Homo sapiens, UniProt Q9UHD2)
T40 construct: purchased Carna Biosciences
Summary of the method: as §1

TRKB = target: T41, TRKB (Homo sapiens, UniProt Q16620)
T41 construct: purchased Carna Biosciences
Summary of the method: as §1

TXK = target: T42, TXK (Homo sapiens, UniProt P42681)
T42 construct: purchased Carna Biosciences
Summary of the method: as §1

p38d = target: T43, p38d (Homo sapiens, UniProt O15264)
T43 construct: purchased Carna Biosciences
Summary of the method: as §1

## CC[C@H](Nc1nc(NCc2cnc(C)cc2C)c2ncn(C(C)C)c2n1)[C@@H](C)O [Fadraciclib, 2-pentanol, 3-[[6-[[(4,6-dimethyl-3-pyridinyl)methyl]amino]-9-(1-methylethyl)-9Hpurin-2-yl]amino]-, (2R,3S)]
ACK
  inhibition at 1 µM: -0.7%
AKT3
  inhibition at 1 µM: 2.4 ± 0.3%
ALK
  inhibition at 1 µM: -9 ± 0.3%
AMPKa1
  inhibition at 1 µM: -3.8%
AurA
  inhibition at 1 µM: -16.2 ± 0.4%
CDC7
  inhibition at 1 µM: -5.7%
CDK7
  inhibition at 1 µM: 86.7 ± 10.9%
CDK9
  inhibition at 1 µM: 96.6 ± 3.2%
CHK1
  inhibition at 1 µM: 1.3%
EGFR[T790M]
  inhibition at 1 µM: -9.6 ± 0.1%
FAK
  inhibition at 1 µM: 23.4 ± 2.9%
FES
  inhibition at 1 µM: 14.9 ± 1.1%
FGFR3[K650E]
  inhibition at 1 µM: 5.6%
FRK
  inhibition at 1 µM: 3.6%
GSK3a
  inhibition at 1 µM: 19.3 ± 1.3%
GSK3b
  inhibition at 1 µM: 23.8 ± 1%
HER4
  inhibition at 1 µM: -13 ± 0.3%
HGK
  inhibition at 1 µM: -23.8 ± 2.7%
IGF1R
  inhibition at 1 µM: -17.1 ± 0.2%
IKKb
  inhibition at 1 µM: 0.2%
IRAK4
  inhibition at 1 µM: -10.1 ± 0.1%
JAK1
  inhibition at 1 µM: -3.1%
JNK1
  inhibition at 1 µM: -13.5 ± 1.3%
JNK2
  inhibition at 1 µM: -19.3 ± 2.2%
LIMK1
  inhibition at 1 µM: 12.3 ± 0.4%
MAP2K6
  inhibition at 1 µM: 0.7%
MAP3K1
  inhibition at 1 µM: -6.6 ± 0.1%
MAP4K2
  inhibition at 1 µM: 2 ± 0.1%
MARK4
  inhibition at 1 µM: -5.1 ± 0.4%
MELK
  inhibition at 1 µM: 5 ± 0.1%
MGC42105
  inhibition at 1 µM: -7.3 ± 0.1%
PBK
  inhibition at 1 µM: -0.9%
PDGFRa[T674I]
  inhibition at 1 µM: -11.4 ± 0.2%
PIM1
  inhibition at 1 µM: 7.4 ± 0.1%
PKD1
  inhibition at 1 µM: 12.4 ± 0.5%
PLK4
  inhibition at 1 µM: -38.5 ± 1%
PRKX
  inhibition at 1 µM: -4.2%
PYK2
  inhibition at 1 µM: 11.7 ± 0.2%
RET
  inhibition at 1 µM: 3.4 ± 0.1%
TBK1
  inhibition at 1 µM: -4.8 ± 0.1%
TRKB
  inhibition at 1 µM: -11.4 ± 0.4%
TXK
  inhibition at 1 µM: 3.1 ± 0.1%
p38d
  inhibition at 1 µM: -16 ± 0.6%
